Counter-ions that a name gives are not always drawn.
Key:
[1] = system: Male SD rats; experiment: Atrial effective refractory period (AERP) prolonging effect, atrium electrostimulation model; type: in vivo, rat; conditions: anesthetized male SD rats, drug 10 mg/kg/10 min, basic cycle 120 ms, three examples per group
[2] = biochemical; parameters: species or system Influenza A Virus H1N1
[3] = system: atrial fibrillation model; conditions: described in Patent Document 1 (JP 2012-236814 A); cited from earlier work

SMILES | ΔAERP prolongation [1] | IC50 [2] | atrial fibrillation suppression effect [3]
CCC(CC)O[C@@H]1C=C(C(=O)c2cccs2)C[C@H](N)[C@H]1NC(C)=O [Example 1, N-[(1R,2R,6S)-6-amino-2-(1-ethylpropoxy)-4-(thiophene-2-carbonyl)-3-cyclohexen-1-yl]acetamide] | 40.0 ms | 71.7 µM | –
CCC(CC)O[C@@H]1C=C(C(=O)c2ccc(C)o2)C[C@H](N)[C@H]1NC(C)=O [Example 3, N-[(1R,2R,6S)-6-amino-2-(1-ethylpropoxy)-4-(5-methylfuran-2-carbonyl)-3-cyclohexen-1-yl]acetamide] | 14.5 ms | – | –
CCC(CC)O[C@@H]1C=C(C(=O)c2ccc(C)s2)C[C@H](N)[C@H]1NC(C)=O [Example 4, N-[(1R,2R,6S)-6-amino-2-(1-ethylpropoxy)-4-(5-methylthiophene-2-carbonyl)-3-cyclohexen-1-yl]acetamide] | – | 66.3 µM | –
CCC(CC)O[C@@H]1C=C(C(=O)c2ccc(F)cc2)C[C@H](N)[C@H]1NC(C)=O [Example 5, N-[(1R,2R,6S)-6-amino-2-(1-ethylpropoxy)-4-(4-fluorobenzoyl)-3-cyclohexen-1-yl]acetamide] | 22.0 ms | – | –
CCC(CC)O[C@@H]1C=C(C(=O)c2ccccc2)C[C@H](N)[C@H]1NC(C)=O.Cl [Example 6, N-[(1R,2R,6S)-6-amino-4-benzoyl-2-(1-ethylpropoxy)-3-cyclohexen-1-yl]acetamide hydrochloride] | 35.7 ms | 86 µM | –
CCC(CC)O[C@@H]1C=C(C(=O)Cc2ccccc2)C[C@H](N)[C@H]1NC(C)=O [Example 7, N-[(1R,2R,6S)-6-amino-2-(1-ethylpropoxy)-4-phenylacetyl-3-cyclohexen-1-yl]acetamide] | 22.0 ms | – | –
CCC(CC)O[C@@H]1C=C(C(=O)C(C)(C)C)C[C@H](N)[C@H]1NC(C)=O [Example 10, N-[(1R,2R,6S)-6-amino-4-(2,2-dimethylpropionyl)-2-(1-ethylpropoxy)-3-cyclohexen-1-yl]acetamide] | 16.0 ms | – | –
CCCCC(=O)C1=C[C@@H](OC(CC)CC)[C@H](NC(C)=O)[C@@H](N)C1.Cl [Example 12, N-[(1R,2R,6S)-6-amino-2-(1-ethylpropoxy)-4-pentanoyl-3-cyclohexen-1-yl]acetamide hydrochloride] | 23.0 ms | 47.3 µM | –
CCC(CC)O[C@@H]1C=C(C(=O)c2ccccc2)C[C@H](N)[C@H]1NC(=O)c1ccccc1 [Example 16, N-[(1R,2R,6S)-6-amino-4-benzoyl-2-(1-ethylpropoxy)-3-cyclohexen-1-yl]benzamide] | 18.7 ms | – | –
CCC(CC)O[C@@H]1C=C(C(=O)c2ccccc2)C[C@H](N)[C@H]1NC(=O)C(C)(C)C [Example 17, N-[(1R,2R,6S)-6-amino-4-benzoyl-2-(1-ethylpropoxy)-3-cyclohexen-1-yl]-2,2-dimethylpropionamide] | 39.3 ms | > 300 µM | –
CCC(CC)O[C@@H]1C=C(C(=O)c2ccccc2)C[C@H](NC(C)=O)[C@H]1N [Example 18, N-[(1S,5R,6R)-6-amino-3-benzoyl-5-(1-ethylpropoxy)-3-cyclohexen-1-yl]acetamide] | 24.0 ms | > 300 µM | –
CCC(CC)O[C@@H]1C=C(C(O)c2ccccc2)C[C@H](N)[C@H]1NC(C)=O (stereo partly drawn) [Example 19, N-[(1R,2R,6S)-6-amino-2-(1-ethylpropoxy)-4-(hydroxyphenylmethyl)-3-cyclohexen-1-yl]acetamide] | – | 87.3 µM | –
CCC(CC)O[C@@H]1C=C(C(=O)c2cccs2)C[C@H](NC(C)=O)[C@H]1N [Example 21, N-[(1S,5R,6R)-6-amino-5-(1-ethylpropoxy)-3-(thiophene-2-carbonyl)-3-cyclohexen-1-yl]acetamide] | 29.5 ms | > 300 µM | –
CCOCC1=C[C@@H](OC(CC)CC)[C@H](NC(C)=O)[C@@H](N)C1 [Example 23, N-[(1R,2R,6S)-6-amino-4-ethoxymethyl-2-(1-ethylpropoxy)-3-cyclohexen-1-yl]acetamide] | 30.0 ms | 80.1 µM | –
CCC(CC)O[C@@H]1CC(C(O)c2ccccc2)C[C@H](N)[C@H]1NC(C)=O (stereo partly drawn) [Example 24, N-[(1R,2S,6R)-2-amino-6-(1-ethylpropoxy)-4-(hydroxyphenylmethyl)cyclohexyl]acetamide] | 20.5 ms | > 300 µM | –
CCC(CC)O[C@@H]1C=C(C(=O)c2cccs2)C[C@H](N)[C@H]1NC(=O)CC(C)C [Example 25, N-[(1R,2R,6S)-6-amino-2-(1-ethylpropoxy)-4-(thiophene-2-carbonyl)-3-cyclohexen-1-yl]-3-methylbutyramide] | 37.7 ms | – | –
CCN[C@@H]1[C@@H](N)CC(C(=O)c2cccs2)=C[C@H]1OC(CC)CC [Example 26, [(3R,4R,5S)-5-amino-4-ethylamino-3-(1-ethylpropoxy)cyclohexen-1-yl]thiophene-2-yl-methanone] | – | > 300 µM | –
CCNC(=O)N[C@@H]1[C@@H](N)CC(C(=O)c2cccs2)=C[C@H]1OC(CC)CC [Example 27, [(1R,2R,6S)-6-amino-2-(1-ethylpropoxy)-4-(thiophene-2-carbonyl)cyclohexen-3-yl]-3-ethylurea] | 56.0 ms | > 300 µM | –
CCCCCCC(=O)C1=C[C@@H](OC(CC)CC)[C@H](NC(C)=O)[C@@H](N)C1 [Example 28, N-[(1R,2R,6S)-6-amino-2-(1-ethylpropoxy)-4-heptanoyl-3-cyclohexen-1-yl]acetamide] | – | 24.6 µM | –
CCC(CC)O[C@@H]1C=C(C(=O)c2ccc(OC)s2)C[C@H](N)[C@H]1NC(C)=O [Example 30, N-[(1R,2R,6S)-6-amino-2-(1-ethylpropoxy)-4-(5-methoxythiophene-2-carbonyl)-3-cyclohexen-1-yl]acetamide hydrochloride] | – | 10.6 µM | –
CCOC(=O)C1=C[C@@H](OC(CC)CC)[C@H](NC(C)=O)[C@@H](N)C1 [Oseltamivir, reference compound] | 15.7 ms | – | has an atrial fibrillation suppression effect

— patent publication US9950989B2, “Cyclic hydrocarbon compound” (TOA EIYO LTD., priority 2014, dated 2018)
